Laboratory results from patent US4792550A, “13-aza-14-oxo-TXA2 analogues” (Ono Pharmaceutical Co., Ltd., priority 1984, dated 1988).
Read-outs that look alike come from different tables or passages of the source.

Experiments:
[1] = tested on: contraction of artery induced by STA2; experiment: Inhibitory activity on contraction of artery (increase of blood pressure) induced by STA2 in guinea pig; format: in vivo; conditions: male guinea pig, 100 μg/kg i.v., blood pressure at carotid artery; for inhibition in vivo at 0.1 mg/kg: Cavia porcellus, iv, read-out: Inhibitory ratios on contraction of artery
Protocol: (ii) inhibitory percentages on contraction of artery induced by STA2 in guinea pigs.
(ii) Inhibitory activity of increasing of blood pressure
A glycine-sodium hydroxide buffer solution (pH 10) of tested compound was administered intravenously to a urethaneanaesthetized male guinea pig weighing 200-350 g, at a rate of 100 μg/kg animal body weight via carotid vein.
And a solution of STA2 in phosphate buffer (pH 7.4) was administered intravenously. Change of the blood pressure was measured at carotid artery and then inhibition ratio (%) was calculated.

[2] = tested on: platelet aggregation induced by STA2 in human blood; experiment: Inhibitory activity of platelet aggregation induced by STA2 in human blood; format: cell-based; conditions: method of Born, read-out: concentrations required 50% inhibition on platelet aggregation (IC50)
Protocol: (i) concentrations required 50% inhibition (IC50) on platelet aggregation using human blood induced by STA2 (9,11-epithio-15-hydroxy-11a-carbathromb-5Z,13E-dienoic acid), and
(i) Inhibitory activitv of platelet aggregation induced by STA2 in human blood
Whole blood of healthy human adult was collected with citric acid, and the mixture (20 ml) was centrifuged (180×g) for 10 min. The surpernatant obtained was diluted with sufficient platelet poor plasma to obtain plasma which contains 300,000 platelet cells per μl.
A solution of tested compound in ethanol (1 μl) was added to the obtained plasma (250 μl), and then a solution of STA2 in ethanol was added to the mixture. The measurement was carried out followed by the method of Born and then IC50 was calculated.

Compound | IC50 ([2]; Homo sapiens, Platelet) [µM] | IC50 [2] [µM] | Inhibitory ratios on contraction of artery [1] [%] | inhibition in vivo at 0.1 mg/kg [1] [%]
CC(C)C(O)C(=O)N[C@H]1C[C@H]2C[C@@H]([C@@H]1C/C=C\CCCC(=O)O)C2(C)C (single isomer, unassigned) [1(kk)] |  | 0.26 | 18.5 | 
CC1(C)[C@H]2C[C@H](NC(=O)CC3Cc4ccccc4C3)[C@@H](C/C=C\CCCC(=O)O)[C@@H]1C2 [1(cc)] | 0.71 |  |  | 
CCC(C)CC(=O)N[C@H]1C[C@H]2C[C@@H]([C@@H]1C/C=C\CCCC(=O)O)C2(C)C (some centres unmarked) [1(dd)] | 0.55 |  |  | 37.1
CC1(C)[C@H]2C[C@H](NC(=O)C3CCCC3)[C@@H](C/C=C\CCCC(=O)O)[C@@H]1C2 [1(o)] | 0.56 |  |  | 34.2
CC1(C)[C@H]2C[C@H](NC(=O)CCCc3cccc(Cl)c3)[C@@H](C/C=C\CCCC(=O)O)[C@@H]1C2 [1(r)] | 0.67 |  |  | 58.6
CCCCC(=O)N[C@H]1C[C@H]2C[C@@H]([C@@H]1C/C=C\CCCC(=O)O)C2(C)C [2(j)] | 0.56 |  |  | 27.3
CC1(C)[C@H]2C[C@H](NC(=O)CCCCc3ccccc3)[C@@H](C/C=C\CCCC(=O)O)[C@@H]1C2 [3(g)] | 0.63 |  |  | 60.5
CCCCCC(=O)N[C@H]1C[C@H]2C[C@@H]([C@@H]1C/C=C\CCCC(=O)O)C2(C)C [Example 6, 9α,11α-dimethylmethano-13-aza-14-oxo-20-nor-11a-carbathromb-5Z-enoic acid] | 0.67 |  |  | 78.1

Now from value to molecule, other results behind:

IC50 ([2]; Homo sapiens, Platelet) [µM] | IC50 [2] [µM] | Compound | Inhibitory ratios on contraction of artery [1] [%] | inhibition in vivo at 0.1 mg/kg [1] [%]
0.3 |  | CC(C)C(O)C(=O)N[C@H]1C[C@H]2C[C@@H]([C@@H]1C/C=C\CCCC(=O)O)C2(C)C (single isomer, unassigned) [1(jj)] | 46.8 | 
0.29 |  | CC1(C)[C@H]2C[C@H](NC(=O)CCSc3ccccc3)[C@@H](C/C=C\CCCC(=O)O)[C@@H]1C2 [1(aa)] |  | 66.4
0.28 |  | CC1(C)[C@H]2C[C@H](NC(=O)C(O)CCc3ccccc3)[C@@H](C/C=C\CCCC(=O)O)[C@@H]1C2 (some centres unmarked) [1(b)] |  | 75.2
0.32 |  | CCCCCC(O)C(=O)N[C@H]1C[C@H]2C[C@@H]([C@@H]1C/C=C\CCCC(=O)O)C2(C)C (some centres unmarked) [1(c)] |  | 71.2
0.38 |  | CC(C)CC(=O)N[C@H]1C[C@H]2C[C@@H]([C@@H]1C/C=C\CCCC(=O)O)C2(C)C [1(ee)] |  | 39
0.3 |  | CC(C)CCC(=O)N[C@H]1C[C@H]2C[C@@H]([C@@H]1C/C=C\CCCC(=O)O)C2(C)C [1(hh)] |  | 42
0.19 |  | CC(CC(=O)N[C@H]1C[C@H]2C[C@@H]([C@@H]1C/C=C\CCCC(=O)O)C2(C)C)Cc1ccccc1 (some centres unmarked) [1(w)] |  | 60.5
0.42 |  | CC1(C)[C@H]2C[C@H](NC(=O)CC3CCCC3)[C@@H](C/C=C\CCCC(=O)O)[C@@H]1C2 [2(g)] |  | 39
0.45 |  | CC1(C)[C@H]2C[C@H](NC(=O)C(Cl)C3CCCC3)[C@@H](C/C=C\CCCC(=O)O)[C@@H]1C2 (some centres unmarked) [2(h)] |  | 57.6
0.43 |  | CC1(C)[C@H]2C[C@H](NC(=O)CCCc3ccccc3)[C@@H](C/C=C\CCCC(=O)O)[C@@H]1C2 [3(c)] |  | 78.1
